Results taken from PubChem BioAssay (NCI).
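Test compounds were applied to cells in 96-well plates for 48 hours at 5 doses. TGI: total growth inhibition.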 Where a SMILES comes first, the peptide text is derived from it. [ ]: non-standard residue; d: D form. The star is where a group is joined. Phe(4-NO2) = N[CH](Cc1ccc([N+](=O)[O-])cc1)C(=O)O; Cbz = O=C(OCc1ccccc1)*

Key:
Assay in all cases: inhibition of tumour cell growth, NCI panel, 48 h
HL-60(TB) leukemia = tested on: HL-60(TB) leukemia
ACHN renal = tested on: ACHN renal
SF-539 CNS = tested on: SF-539 CNS
SK-MEL-5 melanoma = tested on: SK-MEL-5 melanoma
SNB-75 CNS = tested on: SNB-75 CNS
OVCAR-4 ovarian = tested on: OVCAR-4 ovarian
BT-549 breast = tested on: BT-549 breast
MALME-3M melanoma = tested on: MALME-3M melanoma
MCF7 breast = tested on: MCF7 breast
MDA-N = tested on: MDA-N
MDA-MB-435 = tested on: MDA-MB-435
KM12 colon = tested on: KM12 colon
OVCAR-8 ovarian = tested on: OVCAR-8 ovarian
NCI-H23 lung = tested on: NCI-H23 lung
NCI-H522 lung = tested on: NCI-H522 lung
A549 NSCLC = tested on: A549 NSCLC
SK-OV-3 ovarian = tested on: SK-OV-3 ovarian

Row | Structure (SMILES) | TGI (HL-60(TB) leukemia) [µM] | TGI (ACHN renal) [µM] | TGI (SF-539 CNS) [µM] | TGI (SK-MEL-5 melanoma) [µM] | TGI (SNB-75 CNS) [µM] | TGI (OVCAR-4 ovarian) [µM] | TGI (BT-549 breast) [µM] | TGI (MALME-3M melanoma) [µM] | TGI (MCF7 breast) [µM] | TGI (MDA-N) [µM] | TGI (MDA-MB-435) [µM] | TGI (KM12 colon) [µM] | TGI (OVCAR-8 ovarian) [µM] | TGI (NCI-H23 lung) [µM] | TGI (NCI-H522 lung) [µM] | TGI (A549 NSCLC) [µM] | TGI (SK-OV-3 ovarian) [µM]
1 | c1ccc(Nc2nnc(-c3ccccc3Nc3ccccc3-c3nnc(Nc4ccccc4)s3)s2)cc1 | > 100 | > 100 | > 100 | > 100 | > 100 | > 100 | > 100 | > 100 | > 100 | > 100 | > 100 | > 100 | > 100 | > 100 | > 100 |  | 
2 | O=C1/C(=C/c2ccc([N+](=O)[O-])cc2)Oc2cc(O)ccc21 | 37.4 | 56.1 | 94.4 | 48 | > 100 | > 100 | 78.7 |  | > 100 | 60.2 | > 100 | > 100 | > 100 | > 100 | 65.6 | 92.9 | 71.6
3 | CC1=NN(c2nc(N)nc(CCl)n2)C(C)(C)C1 | > 24.9 | 31 | 34 | > 56 | > 75.6 | 27 | > 82.5 |  | > 100 | > 100 | > 100 | 51.5 | > 55.5 | 28.6 | 2.94 | > 100 | > 100
4 | O=C(O)c1cc(-c2ccc3cc(O)c(O)cc3c2)ccc1O | > 12.5 | > 12.5 | > 12.5 | > 12.5 | > 12.5 |  | > 12.5 | > 12.5 | > 12.5 | > 12.5 | > 12.5 | > 12.5 | > 12.5 | > 12.5 | > 12.5 | > 12.5 | > 12.5
5 | COC(=O)C1=CCC[C@H]2[C@@]1(COC(C)=O)CC[C@@H](C)[C@]2(C)CC(=O)c1ccoc1 | 24.5 | > 50 | 24.8 | 16.9 | > 50 | > 50 | 31.3 |  | > 50 | > 50 | > 50 | > 50 | > 50 | 47.2 | 22 | > 50 | > 50
6 | COc1ccc(-n2c(C)nc3ccc(NC4OC(COC(C)=O)C(OC(C)=O)C(OC(C)=O)C4OC(C)=O)cc3c2=O)cc1 (centres undefined) | 48.7 | > 100 |  | > 100 | > 100 | > 100 | > 100 | > 100 | > 100 | > 100 | > 100 | > 100 | > 100 | > 100 | 47.5 |  | 
7 | O=C(Cn1c(C(=O)/C=C/c2ccc(Cl)c(Cl)c2)nc2ccccc21)c1ccccc1 | 36.7 | 93.5 | 48.2 | 35.4 |  | 73.2 | 99.3 | 86.2 | 82.2 | 47.2 | 42.4 | 56.5 |  | > 100 |  | 59.8 | > 100
8 | CC(C)(C)c1cc(C(C)(C)C)c(SSc2c(C(C)(C)C)cc(C(C)(C)C)c(O)c2O)c(O)c1O | 14.6 | 26.6 |  | 24 | 41.9 | 15.5 | 28.3 | 36 | 27.5 | 23.9 | 17.2 | 25.4 | 47.7 | 22.8 | 16.6 | 24 | 
9 | CCOC(=O)CCC(NC(=O)OCc1ccccc1)C(=O)NC(CCC(=O)OCC)C(=O)NC(CCC(=O)OCC)C(=O)NC(CCC(=O)OCC)C(=O)NC(CCC(=O)OCC)C(=O)NC(Cc1ccc([N+](=O)[O-])cc1)C(=O)NC(CCC(=O)OCC)C(=O)NC(CCC(=O)OCC)C(=O)NC(CCC(=O)OCC)C(=O)NC(CCC(=O)OCC)C(=O)NC(CCC(=O)OCC)C(=O)OCC (centres undefined) (Cbz-E(OEt)E(OEt)E(OEt)E(OEt)E(OEt)[Phe(4-NO2)]E(OEt)E(OEt)E(OEt)E(OEt)E(OEt)-OEt; configuration not given here) | > 50 | > 50 | > 50 | > 50 | > 50 | > 50 | > 50 | > 50 | > 50 | > 50 | > 50 | > 50 |  | > 50 | > 50 | > 50 | > 50
10 | CC(C)CC1C(=O)OC(C)(C)OC1=O |  | > 100 | > 100 | > 100 | > 100 | > 100 | > 100 |  | > 100 | > 100 | > 100 | > 100 | > 100 | > 100 | > 100 | > 100 | > 100
11 | ON[C@@H]1C=C[C@H](n2cnc3c(NC4CC4)ncnc32)C1 |  | > 100 | > 100 | > 100 | > 100 | > 100 | > 100 | > 100 | > 100 | > 100 | > 100 | > 100 | > 100 | > 100 | > 100 | > 100 | > 100
12 | Clc1nc(NC23CC4CC(CC(C4)C2)C3)nc(NC23CC4CC(CC(C4)C2)C3)n1 | 87.5 | > 100 | > 100 | > 100 | > 78 | > 100 | > 100 | > 100 | > 100 | > 100 | > 100 | > 100 | > 100 | > 100 |  | > 100 | > 100
13 | COc1ccc(-n2c(C)nc3ccc(NC4OCC(OC(C)=O)C(OC(C)=O)C4OC(C)=O)cc3c2=O)cc1 (centres undefined) | > 100 | > 100 |  | > 100 | > 100 | > 100 | > 100 | > 100 | > 100 | > 100 | > 100 | > 100 | > 100 | > 100 | > 100 |  | 
14 | CCOC1OC(CO[Si](C)(C)C(C)(C)C)C(O)CC1n1ccc(=O)[nH]c1=O (centres undefined) |  | > 100 | > 100 | > 100 | > 100 | > 100 | > 100 | > 100 | 88.7 | > 100 | > 100 | > 100 | > 100 | > 100 | 45.6 | > 100 | 
15 | CC(C)(CO)CNc1nc(N)nc(Cl)c1C=O | 17.7 | > 100 | > 100 | > 100 | > 100 | > 100 | > 100 | > 100 | > 100 | 72.2 | 66.5 | > 100 | 68.1 | > 100 | 23.5 | > 100 | 
16 | O=C(N/N=C\c1ccc([N+](=O)[O-])cc1)Nc1ccc2ccccc2c1 |  | > 100 | 47.6 | > 100 | 68.1 | 46.2 | > 100 | 51.7 | > 100 | > 100 | > 100 | 67.3 | > 100 | > 100 | 68.4 | > 100 | 89.1
17 | CCC(=O)NC(NNS(=O)(=O)c1ccc(C)cc1)(C(F)(F)F)C(F)(F)F | > 100 | > 100 | > 100 | > 100 | > 100 |  | 91.8 | > 100 | > 100 | 54.3 | 48 | > 100 | > 100 | > 100 | 62.4 | > 100 | > 100
18 | Cc1ccc(C(=O)c2[nH]c(NCc3ccccc3)c(C(=S)Nc3ccccc3)c2N)cc1 | 33.5 | 23.5 | 5.63 |  | 16.6 | 12.5 | 20.3 |  | 13.2 | 12.3 | 10.2 | 6.34 | 26.1 | 27.1 | 4.96 | 22.1 | 8.04
19 | COc1ccc(/C=N/n2c(Cc3ccccc3)n[nH]c2=O)c(OC)c1 |  | > 56.5 | > 100 | > 100 | 28.6 | > 100 | > 49 | > 100 | > 100 | > 100 | > 100 | > 100 | > 59.6 | > 65.4 | > 100 | > 58.4 | > 60.7
20 | CCOc1ccc(NC(=O)/C=C/c2ccco2)cc1 | 44.5 | > 100 | > 100 | > 100 | > 100 |  | > 100 | > 100 | > 100 | > 100 | 22 | > 100 | > 100 | > 100 | > 100 | > 100 | > 100
21 | CSCCCNC(=O)c1csc(-c2csc(CCNC(=O)CNC(=O)OC(C)(C)C)n2)n1 |  | > 100 | > 100 | > 100 | > 100 | > 100 | > 100 | > 100 | > 100 | > 100 | > 100 | > 100 | > 100 | > 100 | > 100 | > 100 | > 100
22 | O=C1C=CC2(C=C1)O[C@H](CCc1ccccc1)[C@@H](CCc1ccccc1)O2 | > 100 | > 100 | > 100 | > 100 | > 100 | > 100 | > 100 | > 100 | > 100 | > 100 | 76.1 | > 100 | > 100 | > 100 |  | > 100 | > 100
23 | COC(=O)c1c(C)c2c(c(C)c1O)OC(=O)c1c(C)cc(O)c(C=O)c1O2 | > 100 | > 100 | > 100 | > 100 |  | > 100 | > 100 | > 100 | > 100 | > 100 | > 100 | > 100 | > 100 | > 100 | > 100 | > 100 | > 100
24 | Fc1nc(-c2c3ccccc3c3sc4ccccc4n23)nc(N2CCOCCOCCOCCOCC2)n1 |  | > 100 | > 100 | > 100 | 5.87 | > 100 | > 100 | > 100 | > 100 | > 100 | > 100 | > 100 | > 100 | > 100 | > 100 | > 100 | > 100
25 | C[C@]12CC/C(=N\OCCN3CCCC3)C=C1CCC1C2CC[C@@]2(C)C1CC[C@]2(C)O (some centres undefined) |  | 50.3 | 22.9 | 29.9 | 11.9 | 82.4 | 28.2 | 18.7 | > 100 | 6.33 | 6.67 | 19.1 | 31.6 | 35.8 | 8.57 | 42.5 | 44.5
26 | Cc1ccccc1-n1c(=O)nc2n(-c3ccc(C(C)(C)C)cc3)c3ccccc3cc-2c1=O | 43.2 | > 100 | 36 | 28.5 | 66.3 | 92.5 | 69.6 |  | 59.9 | 82.4 | 27.9 | 29.8 | 42.9 | 58.2 | 47.6 | > 100 | 
27 | N#Cc1ccc(N=NN2CCCC2)cc1 | > 100 | > 100 | > 100 | > 100 | > 100 | > 100 | > 100 |  | > 100 | > 100 | > 100 | > 100 | > 100 | > 100 | > 100 |  | > 100
